{"source": "patent US6713603B2", "about": "“Chiral peptide nucleic acids” (Isis Innovation Limited, priority 1996, dated 2004)", "key": {"[1]": {"test_system": "dA10", "test": "1H NMR experiment: mixing DD-ST10 with dA10 (solubility of complex)", "type": "physicochemical", "details": "0.5 mM DD-ST10 in 10% D2O-H2O", "protocol": "A ^1H NMR study of a mixture of DD-ST10 and dA10 was attempted.\n^1H NMR study of a mixture of DD-ST10 and dA10 was performed on a Bruker AMX 500 spectrometer (500 MHz). The ^1H NMR spectra of DD-ST10 and dA10 were recorded separately (at a concentration of 0.53 mM for the DD-ST10 and 0.67 mM for the dA10 in 10% D2O in H2O)."}, "[2]": {"test_system": "dA10", "test": "Melting curves (Tm) of hybrids of cPNAs with dA10", "type": "binding", "details": "260 nm; for Tm with dA10: 150 mM sodium chloride, 10 mM sodium phosphate pH 7.0", "protocol": "Although both cis-D and cis-L analogues gave melting curves with poly(dA) and poly(rA), only the cis-D analogue gave a well-defined melting curve with (dA)10, with Tm=61° C., under the same conditions.\n(§1) Further investigation of the nature of the cis-D peptide nucleic acid-oligonucleotide interaction was undertaken by determining the melting curve with (dT)10.\n(§2) All the Tm measurements were carried out on a Varian CARY 13 UV spectrophotometer equipped with a temperature control system. The machine was controlled by a CARY 13 software running on an IBM PS/2 system model 30/286. The sample for Tm measurement was prepared by mixing calculated amounts of stock oligonucleotide and nucleopeptide solutions together and the calculated amounts of NaCl and sodium phosphate buffer (pH 7.0) were then added as stock solutions and the final volumes were adjusted to 3.0 ml by addition of water. The samples were transferred to a 10 mm quartz cell with teflon stopper and equilibrated at the starting temperature for at least 30 min. The OD260 was recorded in steps from 5-95° C. (heater temperature) with a temperature increment of 0.25-0.5° C./min, The results were normalised by dividing the absorbance at each temperature by the initial absorbance. Analysis of the data was performed on a KaleidaGraph software 2.1.3 (Abelbeck Software) running on a Macintosh LC III computer. The OD260 was normalised by dividing with the initial OD260. The melting temperatures were determined from the maxima of the first derivative plots of the normalised OD260 against temperature. Percent hyperchromicity was calculated from the ratio of the OD260 at the end of experiment to the initial OD260."}, "[3]": {"test": "Solubility in water", "type": "physicochemical"}, "[4]": {"test_system": "poly(dA)", "test": "Melting curves (Tm) of 1:1 hybrids of cPNAs with poly(dA)", "type": "binding", "details": "for Tm with poly (dA): 1:1 hybrid, 260 nm; for Tm with poly (dA) / % hypochromicity with poly (dA): 150 mM sodium chloride, 10 mM sodium phosphate pH 7.0; for % hypochromicity with poly (dA): from melting curves at 260 nm", "protocol": "(§3) The deca-thymine glycyl-proline peptide nucleic acids with cis-L, trans-D and cis-D stereochemistry, and C-terminal L-lysinamide were mixed in 1:1 ratio with poly(rA) and poly(dA) in the presence of 150 mM NaCl and sodium phosphate buffer (10 mM Na^+, pH 7.0) and the Tm determined (FIG. 3). […] The magnitudes of absorbance change were of the order of 30-40%.\nFIG. 3. The melting curves of the 1:1 hybrids of (a) H-[Gly-L-Pro(cis-4-T)]10-Lys-NH2, (b) H-[Gly-D-Pro(cis-4-T)]10-Lys-NH2, (c) H-[Gly-D-Pro(trans-4-T)]10-Lys-NH2 with poly(dA) at 150 mM NaCl, 10 mM sodium phosphate, pH 7.0 and (d) poly(dA) alone. The poly(dA) concentration was 10.8 μM dA nucleotide. The melting curves were recorded at 260 nm and the rate of heating was 0.5° C./min.\nas §2"}, "[5]": {"test_system": "poly(rA)", "test": "Melting curves (Tm) of 1:1 hybrids of cPNAs with poly(rA)", "type": "binding", "details": "150 mM sodium chloride, 10 mM sodium phosphate pH 7.0; for Tm with poly (rA): 1:1 hybrid, 260 nm; for % hypochromicity with poly (rA): from melting curves at 260 nm", "protocol": "as §3, §2"}, "[6]": {"test_system": "(dT)10", "test": "Melting curve of 1:1 mixture with (dT)10", "type": "binding", "protocol": "as §1\nas §2, with “Analysis of the data was performed on a KaleidaGraph software 2.1.3 (Abelbeck Software) running on a Macintosh LC III computer. The OD260 was normalised by dividing with the initial OD260.” left out"}, "[7]": {"test_system": "complementary oligonucleotides", "test": "1H NMR experiment: mixing cPNA with complementary oligonucleotides (solubility of complex)", "type": "physicochemical", "details": "mmolar concentration", "protocol": "Following the promising results obtained on the binding is studies of the cPNA with complementary oligonucleotides by Tm measurement, a ^1H NMR experiment was performed on the mixed sequence decamer, H-Gly-D-Pro(cis-4-G)-Gly-D-Pro(cis-4-T)-Gly-D-Pro(cis-4-A)-Gly-D-Pro(cis-4-G)-Gly-D-Pro(cis-4-A)-Gly-D-Pro(cis-4-T)-Gly-D-Pro(cis-4-C)-Gly-D-Pro(cis-4-A)-Gly-D-Pro(cis-4-C)-Gly-D-Pro(cis-4-T)-LysNH2, and its complementary oligonucleotides, both in parallel and antiparallel fashion. […] In an attempt to overcome this problem it was decided to synthesise a cPNA analogue, containing a hydrophilic spacer amino acid—namely serine—in place of the glycine spacer in the backbone while retaining the cis-D-configuration of the proline moiety. […] Thus the target molecules were diastereomeric thymine-decamers H-[L-Ser-D-Pro(cis-4-T)]10LysNH2 (“LD-ST10”) and H-[D-Ser-D-Pro(cis-4-T)]10LysNH2 (“DD-ST10”)."}, "[8]": {"test_system": "Sequence ID No. 2", "test": "Tm of mixed-base cPNA hybridised with complementary oligonucleotide Sequence ID No. 2", "type": "binding", "description": "(§4) All four bases found in DNA were introduced into the glycyiproline building units with the cis-D configuration and from these mixed cPNAs containing all four nucleobases have been made. The sequence GTAGATCACT, capped at its C-terminus with L-lysinamide was synthesized, and its binding properties with oligonucleotides investigated. Since it is important to determine the preferred orientation of binding of these novel CPNAs to oligonucleotides, both of the possible complementary oligonucleotides were prepared, i.e. Sequence ID No. 2, and Sequence ID No. 3, and hybridised with the chiral PNA.\n(§5) All the Tm measurements were carried out on a Varian CARY 13 UV spectrophotometer equipped with a temperature control system. […] The sample for Tm measurement was prepared by mixing calculated amounts of stock oligonucleotide and nucleopeptide solutions together and the calculated amounts of NaCl and sodium phosphate buffer (pH 7.0) were then added as stock solutions and the final volumes were adjusted to 3.0 ml by addition of water. […] The OD260 was recorded in steps from 5-95° C. (heater temperature) with a temperature increment of 0.25-0.5° C./min, The results were normalised by dividing the absorbance at each temperature by the initial absorbance. […] The melting temperatures were determined from the maxima of the first derivative plots of the normalised OD260 against temperature. […]"}, "[9]": {"test_system": "Sequence ID No. 3", "test": "Tm of mixed-base cPNA hybridised with complementary oligonucleotide Sequence ID No. 3", "type": "binding", "description": "as §4, §5"}}, "note": "[cPNA-N] = chiral peptide nucleic acid unit: glycyl-D-proline with cis-4-nucleobase (N: the base); {LysNH2} = C-terminal L-lysinamide cap", "data": [{"molecule": "O=C(NCC(=O)N1C[C@H](n2cnc3c(NC(=O)c4ccccc4)ncnc32)C[C@@H]1C(=O)Oc1c(F)c(F)c(F)c(F)c1F)OCC1c2ccccc2-c2ccccc21", "note": "[compound 10, N-(N-Fluoren-9-ylmethoxycarbonylglycyl)-cis-4-(N6-benzoyladenin-9-yl)-D-proline pentafluorophenyl ester]", "values": [{"measurement": "melting point", "result": "125 to 130", "unit": "°C"}]}, {"molecule": "H-[D-Ser-D-Pro(cis-4-T)]10LysNH2 [DD-ST10]", "values": [{"measurement": "behaviour on addition of 20 mol % of dA10", "setting": "[1]", "result": "an immediate precipitation occurred"}]}, {"molecule": "Cc1cn([C@@H]2C[C@H](C(=O)Oc3c(F)c(F)c(F)c(F)c3F)N(C(=O)CNC(=O)OCC3c4ccccc4-c4ccccc43)C2)c(=O)[nH]c1=O", "note": "[6c, N-(N-Fluoren-9-ylmethoxycarbonylglycyl)-cis-4-(thymin-1-yl)-D-proline pentafluorophenyl ester]", "values": [{"measurement": "melting point", "result": "122 to 126", "unit": "°C"}]}, {"molecule": "H-[Gly-D-Pro(trans-4-T)]10-Lys-NH2 [H-[Gly-D-Pro(trans-4-T)]10-LysNH2]", "values": [{"measurement": "Tm with dA10", "setting": "[2]", "result": "No melting"}, {"measurement": "solubility in water compared with the other T10 cPNAs", "setting": "[3]", "result": "considerably more soluble than the other two"}, {"measurement": "Tm with poly (dA)", "setting": "[4]", "result": "No melting"}, {"measurement": "Tm with poly (rA)", "setting": "[5]", "result": "No melting"}]}, {"molecule": "H-[Gly-D-Pro(cis-4-T)]10-Lys-NH2 [H-[Gly-D-Pro(cis-4-T)]10-LysNH2]", "values": [{"measurement": "increase in absorbance at 260 nm on heating, 1:1 mixture with (dT)10", "setting": "[6]", "result": "no significant increase"}, {"measurement": "Tm with dA10", "setting": "[2]", "result": 61, "unit": "°C"}, {"measurement": "hyperchromicity of 1:1 mixture with (dA)10", "setting": "[2]; on heating", "result": "ca. 20%"}, {"measurement": "Tm with poly (dA)", "setting": "[4]", "result": 70, "unit": "°C"}, {"measurement": "binding with poly(dA), comparison of the 10 mers", "setting": "[4]; 10 mers derived from (6a), (6b) and (6c)", "result": "binds most strongly"}, {"measurement": "% hypochromicity with poly (dA)", "setting": "[4]", "result": 28, "unit": "%"}, {"measurement": "Tm with poly (rA)", "setting": "[5]", "result": 72, "unit": "°C"}, {"measurement": "% hypochromicity with poly (rA)", "setting": "[5]", "result": 45, "unit": "%"}]}, {"molecule": "Cc1cn([C@@H]2C[C@H](C(=O)O)N(C(=O)CNC(=O)OCC3c4ccccc4-c4ccccc43)C2)c(=O)[nH]c1=O", "note": "[5c, N-(N-Fluoren-9-ylmethoxycarbonylglycyl)-cis-4-(thymin-1-yl)-D-proline]", "values": [{"measurement": "melting point", "result": "> 200", "unit": "°C"}]}, {"molecule": "CC(C)C(=O)Nc1nc2c(ncn2[C@@H]2C[C@H](C(=O)Oc3c(F)c(F)c(F)c(F)c3F)N(C(=O)CNC(=O)OCC3c4ccccc4-c4ccccc43)C2)c(=O)[nH]1", "note": "[compound 16, N-(N-Fluoren-9-ylmethoxycarbonylglycyl)-cis-4-(N2-isobutyrylguanin-9-yl)-D-proline pentafluorophenyl ester]", "values": [{"measurement": "melting point", "result": "146 to 150", "unit": "°C"}]}, {"molecule": "Cc1cn([C@H]2C[C@@H](C(=O)Oc3c(F)c(F)c(F)c(F)c3F)N(C(=O)CNC(=O)OCC3c4ccccc4-c4ccccc43)C2)c(=O)[nH]c1=O", "note": "[6a, N-(N-Fluoren-9-ylmethoxycarbonylglycyl)-cis-4-(thymin-1-yl)-L-proline pentafluorophenyl ester]", "values": [{"measurement": "melting point", "result": "124 to 126", "unit": "°C"}]}, {"molecule": "Cc1cn([C@H]2C[C@H](C(=O)Oc3c(F)c(F)c(F)c(F)c3F)N(C(=O)CNC(=O)OCC3c4ccccc4-c4ccccc43)C2)c(=O)[nH]c1=O", "note": "[6b, N-(N-Fluoren-9-ylmethoxycarbonylglycyl)-trans-4-(thymin-1-yl)-D-proline pentafluorophenyl ester]", "values": [{"measurement": "melting point", "result": "115 to 124", "unit": "°C"}]}, {"molecule": "O=C(NCC(=O)N1C[C@H](n2ccc(NC(=O)c3ccccc3)nc2=O)C[C@@H]1C(=O)Oc1c(F)c(F)c(F)c(F)c1F)OCC1c2ccccc2-c2ccccc21", "note": "[compound 13, N-(N-Fluoren-9-ylmethoxycarbonylglycyl)-cis-4-(N4-benzoylcytosin-1-yl)-D-proline pentafluorophenyl ester]", "values": [{"measurement": "melting point", "result": "133 to 137", "unit": "°C"}]}, {"molecule": "Cc1cn([C@H]2C[C@H](C(=O)O)N(C(=O)CNC(=O)OCC3c4ccccc4-c4ccccc43)C2)c(=O)[nH]c1=O", "note": "[5b, N-(N-Fluoren-9-ylmethoxycarbonylglycyl)-trans-4-(thymin-1-yl)-D-proline]", "values": [{"measurement": "melting point", "result": "> 200", "unit": "°C"}]}, {"molecule": "Cc1cn([C@H]2C[C@@H](C(=O)O)N(C(=O)CNC(=O)OCC3c4ccccc4-c4ccccc43)C2)c(=O)[nH]c1=O", "note": "[5a, N-(N-Fluoren-9-ylmethoxycarbonylglycyl)-cis-4-(thymin-1-yl)-L-proline]", "values": [{"measurement": "melting point", "result": "> 200", "unit": "°C"}]}, {"molecule": "H-[Gly-L-Pro(cis-4T)]10-Lys-NH2 [H-[Gly-L-Pro(cis-4-T)]10-LysNH2]", "values": [{"measurement": "Tm with dA10", "setting": "[2]", "result": 42, "unit": "°C"}, {"measurement": "Tm with dA10", "setting": "[2]; listed as cis-L analogue", "result": "near room temperature"}, {"measurement": "Tm with poly (dA)", "setting": "[4]", "result": 69, "unit": "°C"}, {"measurement": "% hypochromicity with poly (dA)", "setting": "[4]", "result": 40, "unit": "%"}, {"measurement": "Tm with poly (rA)", "setting": "[5]", "result": 73, "unit": "°C"}, {"measurement": "% hypochromicity with poly (rA)", "setting": "[5]", "result": 36, "unit": "%"}]}, {"molecule": "H-Gly-D-Pro(cis-4-G)-Gly-D-Pro(cis-4-T)-Gly-D-Pro(cis-4-A)-Gly-D-Pro(cis-4-G)-Gly-D-Pro(cis-4-A)-Gly-D-Pro(cis-4-T)-Gly-D-Pro(cis-4-C)-Gly-D-Pro(cis-4-A)-Gly-D-Pro(cis-4-C)-Gly-D-Pro(cis-4-T)-Lys-NH2 (GTAGATCACT; all [cPNA-N], 3' {LysNH2}, methylation of C not given here; glycyl-D-proline chiral PNA backbone, free N-terminus)", "values": [{"measurement": "behaviour on mixing with complementary oligonucleotides (parallel and antiparallel)", "setting": "[7]", "result": "a white precipitate formed immediately"}, {"measurement": "Tm with complementary oligonucleotide Sequence ID No. 2", "setting": "[8]", "result": 47, "unit": "°C"}, {"measurement": "Tm with complementary oligonucleotide Sequence ID No. 3", "setting": "[9]", "result": 43, "unit": "°C"}, {"measurement": "solubility in water of the cPNA alone", "setting": "[3]", "result": "freely soluble"}]}]}
